According to US11141411B2, “Methods of treating neurological, metabolic, and other disorders using enantiopure deuterium-enriched pioglitazone” (Poxel SA, priority 2014, dated 2021):

Experiments:
[1] = Pharmacokinetics in male C57BL/6 mice, oral gavage once a day for 5 days; conditions: day 5, d-S-pio or d-R-pio 15 mg/kg oral gavage daily; for t1/2 d-S: elimination half-life of analyte d-S-pio; for t1/2 h-R: elimination half-life of analyte h-R-pio; for t1/2 h-R / t1/2 h-S: h-rac-pio 30 mg/kg; for t1/2 h-S: elimination half-life of analyte h-S-pio
Description: Animals were then euthanized. Plasma was separated by centrifugation and stored at −80° C. until analyzed.
Concentrations were calculated by interpolation on standard curves generated from mouse plasma samples spiked with known concentrations of the pure analytes.

[2] = Body weight gain in male C57BL/6J mice on a standard diet; type: in vivo, mouse; conditions: twice daily oral gavage 11 days, overall daily dose h-rac-pio 30 mg/kg, d-S-pio 15 mg/kg, d-R-pio 15 mg/kg, vs. vehicle
Description: Male C57BL/6J mice (about 28 g body weight) were acclimated singly-housed for one week to a reverse light/dark cycle with free access to water and standard maintenance diet. Animals were then handled daily for one week followed by another 7 days of twice daily dosing with vehicle (0.5% methylcellulose in water) by oral gavage. […] Body weights were measured twice daily, prior to each dosing, to adjust individual dosing volumes to actual body weights.

[3] = test system: db/db mice; experiment: db/db mouse model of type II diabetes, 10-day daily oral dosing; type: in vivo; conditions: daily oral gavage 10 days, h-rac-pio 30 mg/kg, vs. vehicle; for decrease of inflammatory biomarker IL-6 / decrease of inflammatory biomarker TNF-α: d-R-pio 20 mg/kg; for adiponectin: d-S-pio 20 mg/kg
Description: Body weights were measured throughout the study. Non-fasting blood glucose (10 μL by tail snip) was measured 4 hours prior to first dose, and animals were sorted and assigned to groups based on this measure. […] A terminal blood sample was collected for determination of serum levels of cholesterol, triglycerides, free fatty acids, adiponectin, serum amyloid A, and cytokines IL-6, TNF-α, and MCP-1, using standard analytical methods. Quantitative results were analyzed by statistical methods using, as appropriate, one- or two-way ANOVA or Kruskal-Wallis tests for differences followed by Sidak's, Dunnett's, or Dunn's post-test to determine differences vs. vehicle-treated control animals. All graphs were generated with GraphPad Prism version 6.0.2 (GraphPad Software, Inc., La Jolla, Calif.).

SMILES | t1/2 d-S [1] | t1/2 h-R [1] | t1/2 h-S [1] | percent body weight difference versus day 1 body weight [2] | decrease of inflammatory biomarker IL-6 [3] | decrease of inflammatory biomarker TNF-α [3] | adiponectin [3] | insulin [3]
[2H][C@]1(Cc2ccc(OCCc3ccc(CC)cn3)cc2)SC(=O)NC1=O [d-R-pio, (R)-5-({p-[2-(5-ethyl-2-pyridyl)ethoxy]phenyl}methyl)-(5-^2H)-1,3-thiazolidine-2,4-dione] | 0.8 h | 2.5 h | 2.5 h | did not increase percent body weight difference over vehicle | trending | trending |  | 
[2H][C@@]1(Cc2ccc(OCCc3ccc(CC)cn3)cc2)SC(=O)NC1=O [d-S-pio, (S)-5-({p-[2-(5-Ethyl-2-pyridyl)ethoxy]phenyl}methyl)-(5-^2H)-1,3-thiazolidine-2,4-dione] | 2.3 h | 3.2 h | 3.1 h | statistically significant increase in percent body weight difference compared to dosing with vehicle |  |  | significantly increased adiponectin | 
CCc1ccc(CCOc2ccc(CC3SC(=O)NC3=O)cc2)nc1 (racemic) [h-rac-pio, rac-5-({p-[2-(5-Ethyl-2-pyridyl)ethoxy]phenyl}methyl)-1,3-thiazolidine-2,4-dione] |  |  |  | statistically significant increase in percent body weight difference compared to dosing with vehicle | trending | trending | significantly increased adiponectin | significantly decreased insulin
